Experiment [1] has as its system HUVEC. The experiment can be described thus: Test system for apoptotically active peptides: TSP-1-induced apoptosis of cultivated HUVEC, DAPI dyeing. It is filed as cell-based, human. As to the method: For the purposes of the disclosure, the term “apoptotically active” will mean that the addition of the respective substance to the test system shown in Examples 5 and 6 generates either a positive or negative inhibition index. Particularly endothelial cells, preferably especially HUVEC, are to this end cultivated in a medium which includes 1 μg TSP-1 per ml. The percentage apoptosis values of such positive control will then serve, as shown in the examples, for the calculation of the inhibition index for those substances which are used as potential inhibitors together with the inductor TSP-1 in parallel tests.
(§1) Cultivation of HUVEC takes place in gelatin-coated culture vessels at 37° C., 5% CO2 and water vapor saturated atmosphere. The culture medium is exchanged every two to three days; in case of confluence, the cells are passaged at a cleavage rate of from 1:3 to 1:5. HUVEC grow strictly contact-inhibited and form unilaminar cell bed having the typical cobble-stone morphology. In case of confluence, the cultures reach cell densities of 4-9×10^4 cells/cm^2. For apoptosis examinations, HUVEC cultures of passages 1-4 are exclusively employed.
(§2) The culture supernatant of a Petri dish is sucked off, the cell bed is fixed on ice for 15 minutes with 1 ml formaldehyde solution, is washed twice with 2 ml PBS, is added 0.5 ml DAPI solution for 15 minutes, is washed with PBS and evaluated under the fluorescence microscope. A UV filter set and a 20× and a 40× objective are used. 500 to 1000 cells are selected at random and the cells having apoptotic nuclei are counted.
(§3) The apoptosis index is calculated in accordance with the following formula: Apoptosis index [%]=number of apoptotic cells/total cell number×100 Flow Cytometry: Solutions: • PBS • Medium • Ethanol (reagent-grade) ice-cooled (−20° C.) • DAPI buffer • DAPI stock solution • DAPI dye solution Procedure:
The culture supernatant is sucked off and the cells are trypsinized without washing them with PBS. The cell suspension is received in medium, is counted, is centrifuged at 800×g for 5 minutes, the sediment is re-suspended in 0.5 ml IF and is dripped into 1.5 ml ice-cold ethanol. The suspension is stored overnight at […]. After renewed centrifugation and re-suspending of the sediment in 2 ml PBS, there follows a half-hour incubation at 37° C., further centrifugation, re-suspending of the sediment in 5 ml DAPI solution, and counting in the flow cytometer at a counting rate of 50 to 300 events per second. […] Caused by the decreasing absolute DNS amount per cell, apoptotic cells appear in a sub-G1 peak [Darzynklewicz Z. et al., Cytometry, 13, 795-808 (1992); Zamai L. et al., Cytometry, 14, 891-897 (1993)].
The cells were cultivated as described in Example 1. The cells are seeded in the corresponding culture vessels (e.g. 24-hole plate/0.5 ml per cavity) and, having obtained complete confluence, are employed for the test. The cells are provided with new medium: • (a) fresh culture medium [Base rate of apoptosis], • (b) fresh medium with 1 μg/ml TSP-1 [Apoptosis-induced substance; control], • (c) medium (b)+peptide of SEQ ID NO 1, 1 mM • (d) medium (b)+peptide of SEQ ID NO 2, 1 mM • (e) medium (b)+peptide of SEQ ID NO 3, 1 mM • (f) medium (b)+peptide of SEQ ID NO 4, 1 mM • (g) medium (b)+peptide of SEQ ID NO 7, 1 mM • (h) medium (b)+peptide of SEQ ID NO 8, 1 mM • (i) medium (b)+peptide of SEQ ID NO 9, 1 mM • (j) medium (b)+peptide of SEQ ID NO 10, 1 mM • (k) medium (b)+peptide of SEQ ID NO 11, 1 mM • (l) medium (b)+peptide of SEQ ID NO 12, 1 mM • (m) medium (b)+peptide of SEQ ID NO 13, 1 mM • (n) medium (b)+peptide of SEQ ID NO 14, 1 mM • (o) medium (b)+peptide of SEQ ID NO 15, 1 mM • (p) medium (b)+peptide of SEQ ID NO 16, 1 mM • (q) medium (b)+peptide of SEQ ID NO 17, 1 mM • (r) medium (b)+peptide of SEQ ID NO 18, 1 mM • (s) medium (b)+peptide of SEQ ID NO 19, 1 mM […]

Experiment [2] concerns HUVEC. The experiment can be described thus: Induction of apoptosis at HUVEC with TSP-1. It is filed as cell-based, human. Conditions: confluent HUVEC, fresh medium + TSP-1 1 μg/ml; fresh medium alone 0.9 ± 0.1. How it is done: as §1, §2, §3
The cells are cultivated as described in Example 1. Having obtained complete confluence, the cells are used for the test. […]

Where [3] appears, read: lengthened peptide sequences, TSP-1 + peptide, tests as in Example 5, control 8.73 ± 0.43.
The mark [4] stands for this setting: lengthened peptide sequences, TSP-1 + peptide, tests as in Example 5, positive = substance inhibited.
[5] abbreviates: 1 μg/ml TSP-1 + peptide 1 mM, 24 hours, positive = substance inhibited, negative = substance induced apoptosis.
Setting [6] is: medium with 1 μg/ml TSP-1 + peptide 1 mM, 24 hours, mean ± SD of three independent experiments, control 3.28 ± 0.55.

Non-standard residues stand in square brackets, D forms with d. No end group written: not given here.

20 substances from patent US9017693B2, “Apoptotically active peptides” (Cytotools AG, priority 2001, dated 2015) can be followed below.

Take “K-R-A-Y-V-V-M-W-K-K (KRAYVVMWLL) [SEQ ID NO 5]”: in the experiment on HUVEC [1] (setting [3]), the “Apoptosis index [%]” value amounted to 0.37 ± 0.22%. Besides, in the experiment on HUVEC [1] (setting [4]), the “Inhibition index [%]” value is “+95.8 ± 2.6%”. As to “K-R-E-Y-V-V-M-W-K-K (LREYVVMWKK) [SEQ ID NO 6]”, the “Apoptosis index [%]” value with HUVEC [1] (setting [3]) is 0.48 ± 0.22%. Besides, the “Inhibition index [%]” value with HUVEC [1] (setting [4]) is “+94.5 ± 2.5%”.

Turning to M-V-V-Y-F-R (MVVYFR) [SEQ ID NO 12], the “Inhibition index [%]” value in the experiment on HUVEC [1] (setting [5]) is −34.1 ± 6.2%. For the same substance, in the experiment on HUVEC [1] (setting [6]), the “Apoptosis index [%]” value came to 4.40 ± 0.53%.

Regarding R-A-Y-V-V-A (RAYVVA) [SEQ ID NO 13], in the experiment with HUVEC [1] (setting [5]), the “Inhibition index [%]” value is given as −51.8 ± 6.0%. The “Apoptosis index [%]” value in the experiment on HUVEC [1] (setting [6]) is 4.98 ± 0.3%. The matching figures for R-A-Y-V-V-M (RAYVVM) [SEQ ID NO 1]: “+75.3 ± 7.5%” and 0.83 ± 0.24%. As to R-C-Y-V-V-M (RCYVVM) [SEQ ID NO 17], the “Inhibition index [%]” value in the experiment on HUVEC [1] (setting [5]) is recorded as −326.5 ± 3.6%. The “Apoptosis index [%]” value in the experiment with HUVEC [1] (setting [6]) was 13.97 ± 0.35%.

Take R-D-Y-V-V-M (RDYVVM) [SEQ ID NO 11]: the “Inhibition index [%]” value in the experiment with HUVEC [1] (setting [5]) is reported as “+37.3 ± 14.0%”. Further, in the experiment with HUVEC [1] (setting [6]), the “Apoptosis index [%]” value was found to be 2.12 ± 0.47%. The matching figures for R-E-Y-V-V-M (REYVVM) [SEQ ID NO 4]: “+69.0 ± 8.9%” and 1.04 ± 0.30%. Consider R-G-Y-V-V-M (RGYVVM) [SEQ ID NO 7], for which the “Inhibition index [%]” value with HUVEC [1] (setting [5]) is recorded as “+46.4 ± 11.1%”. For the same substance, in the experiment on HUVEC [1] (setting [6]), the “Apoptosis index [%]” value came out at 1.83 ± 0.37%.

Take R-L-Y-V-V-M (RLYVVM) [SEQ ID NO 14]: the “Inhibition index [%]” value with HUVEC [1] (setting [5]) is −95.4 ± 6.1%. In addition, in the experiment with HUVEC [1] (setting [6]), the “Apoptosis index [%]” value stood at 6.41 ± 0.63%. The matching figures for R-M-Y-V-V-M (RMYVVM) [SEQ ID NO 8]: “+44.2 ± 11.6%” and 1.84 ± 0.39%. Turning to R-N-Y-V-V-M (RNYVVM) [SEQ ID NO 10], the “Inhibition index [%]” value in the experiment with HUVEC [1] (setting [5]) is “+39.5 ± 15.8%”. The “Apoptosis index [%]” value with HUVEC [1] (setting [6]) is recorded as 2.06 ± 0.53%. In the case of R-P-Y-V-V-M (RPYVVM) [SEQ ID NO 15], the “Inhibition index [%]” value in the experiment with HUVEC [1] (setting [5]) is −72.8 ± 6.4%. Besides, the “Apoptosis index [%]” value in the experiment with HUVEC [1] (setting [6]) is 5.67 ± 0.54%. Regarding R-S-Y-V-V-M (RSYVVM) [SEQ ID NO 16], the “Inhibition index [%]” value in the experiment with HUVEC [1] (setting [5]) was −108.4 ± 3.7%. Also, the “Apoptosis index [%]” value in the experiment on HUVEC [1] (setting [6]) came to 6.86 ± 0.37%. Consider R-T-Y-V-V-M (RTYVVM) [SEQ ID NO 9], for which the “Inhibition index [%]” value in the experiment on HUVEC [1] (setting [5]) is “+44.5 ± 9.8%”. Besides, the “Apoptosis index [%]” value in the experiment on HUVEC [1] (setting [6]) is 1.86 ± 0.36%. As for R-W-Y-V-V-M (RWYVVM) [SEQ ID NO 2], in the experiment on HUVEC [1] (setting [5]), the “Inhibition index [%]” value is recorded as “+61.9 ± 7.7%”. Also, the “Apoptosis index [%]” value with HUVEC [1] (setting [6]) is on record as 1.30 ± 0.26%.

For R-Y-Y-V-V-M (RYYVVM) [SEQ ID NO 3], the “Inhibition index [%]” value in the experiment on HUVEC [1] (setting [5]) is reported as “+74.7 ± 5.0%”. Besides, in the experiment with HUVEC [1] (setting [6]), the “Apoptosis index [%]” value worked out at 0.85 ± 0.17%. As for “TSP-1: thrombospondin 1, apoptosis-inducing substance added at 1 μg/ml to HUVEC medium as inductor/control”, in the experiment on HUVEC [2], the “Apoptosis rate (%) after 24 h” value came to 3.0 ± 0.4%. As for “m-v-v-y-a-r ([dM][dV][dV][dY][dA][dR]) [SEQ ID NO 19]”, the “Inhibition index [%]” value in the experiment on HUVEC [1] (setting [5]) is given as −247.1 ± 5.4%. In the experiment with HUVEC [1] (setting [6]), the “Apoptosis index [%]” value is 11.4 ± 0.63%. The matching figures for “m-v-v-y-f-r ([dM][dV][dV][dY][dF][dR]) [SEQ ID NO 18]”: −345.1 ± 5.1% and 14.6 ± 0.75%.
